Drawing on patent US9409866B2, “Pyridine-2-amides useful as CB2 agonists” (Hoffmann-La Roche Inc., priority 2012, dated 2016), this text covers EC50 for 19 molecules.

The target of one assay is human CB2 receptors (Homo sapiens (Human), UniProt P34972). Nature of the assay: functional cAMP assay, CHO cells expressing human CB2. Format: cell-based. The note with it: Human CB2 EC50 (uM). The procedure:
(§1) CHO cells expressing human CB1 or CB2 receptors are seeded 17-24 hours prior to the experiment 50.000 cells per well in a black 96 well plate with flat clear bottom (Corning Costar #3904) in DMEM (Invitrogen No. 31331), 1×HT supplement, with 10% fetal calf serum and incubated at 5% CO2 and 37° C. in a humidified incubator. The growth medium was exchanged with Krebs Ringer Bicarbonate buffer with 1 mM IBMX and incubated at 30° C. for 30 min. Compounds were added to a final assay volume of 100 μl and incubated for 30 min at 30° C. Using the cAMP-Nano-TRF detection kit the assay (Roche Diagnostics) was stopped by the addition of 50 μl lysis reagent (Tris, NaCl, 1.5% Triton X100, 2.5% NP40, 10% NaN3) and 50 μl detection solutions (20 μM mAb Alexa700-cAMP 1:1, and 48 μM Ruthenium-2-AHA-cAMP) and shaken for 2 h at room temperature. The time-resolved energy transfer is measured by a TRF reader (Evotec Technologies GmbH), equipped with a ND:YAG laser as excitation source. The plate is measured twice with the excitation at 355 nm and at the emission with a delay of 100 ns and a gate of 100 ns, total exposure time 10 s at 730 (bandwidth 30 nm) or 645 nm (bandwidth 75 nm), respectively. The FRET signal is calculated as follows: FRET=T730-Alexa730-P(T645-B645) with P=Ru730-B730/Ru645-B645, where T730 is the test well measured at 730 nM, T645 is the test well measured at 645 nm, B730 and B645 are the buffer controls at 730 nm and 645 nm, respectively. cAMP content is determined from the function of a standard curve spanning from 10 μM to 0.13 nM cAMP.
(§2) EC50 values were determined using Activity Base analysis (ID Business Solution, Limited). The EC50 values for a wide range of cannabinoid agonists generated from this assay were in agreement with the values published in the scientific literature.
A general note: Changes in cAMP serve as a functional read-out for many G protein-coupled receptors.

In another assay the target is human CB1 receptors (Homo sapiens (Human), UniProt P21554). Nature of the assay: functional cAMP assay, CHO cells expressing human CB1. It counts as cell-based. The note with it: functional cAMP assay, CHO cells expressing human CB1. Here is the method: as §1, §2
Sequence of human CB1 receptors (P21554 whole entry): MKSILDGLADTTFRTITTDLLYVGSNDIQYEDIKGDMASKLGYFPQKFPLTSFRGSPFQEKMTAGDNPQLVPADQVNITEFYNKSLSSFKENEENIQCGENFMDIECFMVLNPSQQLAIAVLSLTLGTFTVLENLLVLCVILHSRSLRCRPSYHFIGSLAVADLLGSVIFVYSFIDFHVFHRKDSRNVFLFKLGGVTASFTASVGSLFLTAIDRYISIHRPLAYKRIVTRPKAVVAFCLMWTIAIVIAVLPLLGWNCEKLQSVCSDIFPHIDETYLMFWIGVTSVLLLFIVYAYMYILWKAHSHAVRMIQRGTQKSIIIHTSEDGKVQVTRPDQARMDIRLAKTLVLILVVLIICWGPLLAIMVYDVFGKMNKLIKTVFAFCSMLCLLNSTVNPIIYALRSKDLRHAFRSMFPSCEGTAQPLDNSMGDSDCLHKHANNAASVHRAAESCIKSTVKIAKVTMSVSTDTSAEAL

Each structure is given as a SMILES string. Where two headings read alike, the source gives them in different places. Where only a bound is given, the exact number is not on record here.

Sequence of human CB2 receptors (P34972 whole entry): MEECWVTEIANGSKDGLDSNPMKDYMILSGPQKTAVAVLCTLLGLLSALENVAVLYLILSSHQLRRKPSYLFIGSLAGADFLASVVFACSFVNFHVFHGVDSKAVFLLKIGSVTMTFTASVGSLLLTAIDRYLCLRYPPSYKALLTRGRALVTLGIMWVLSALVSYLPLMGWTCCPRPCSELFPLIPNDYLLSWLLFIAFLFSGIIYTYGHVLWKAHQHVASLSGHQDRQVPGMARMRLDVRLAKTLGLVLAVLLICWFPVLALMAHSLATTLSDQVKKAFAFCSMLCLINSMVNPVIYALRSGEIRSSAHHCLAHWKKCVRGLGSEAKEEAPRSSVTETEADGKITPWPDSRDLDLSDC

A word on the EC50: it is the midpoint of the concentration-response curve. As to `Cc1nc(C(NC(=O)c2cc(OCC(F)(F)F)c(C3CC3)cn2)C(C)(C)C)no1` (single isomer, unassigned) [Example 211, 5-cyclopropyl-N-[2,2-dimethyl-1-(5-methyl-1,2,4-oxadiazol-3-yl)propyl]-4-(2,2,2-trifluoroethoxy)pyridine-2-carboxamide], the EC50 is 0.0048 µM on human CB2 receptors and more than 10 µM at human CB1 receptors (Human CB1 EC50 (uM)).
Consider `Cc1nc(C(NC(=O)c2cc(OCC(F)(F)F)c(C3CC3)cn2)C(C)(C)C)no1` (single isomer, unassigned) [Example 212, 5-cyclopropyl-N-[2,2-dimethyl-1-(5-methyl-1,2,4-oxadiazol-3-yl)propyl]-4-(2,2,2-trifluoroethoxy)pyridine-2-carboxamide], for which the half-maximal effective concentration (EC50) is 0.005 µM at human CB2 receptors and more than 10 µM at human CB1 receptors (read-out: Human CB1 EC50).
As to `CNC(=O)C(NC(=O)c1cc(OCC(F)(F)F)c(C2CC2)cn1)C(C)(C)C` (single isomer, unassigned) [Example 224, 5-cyclopropyl-N-[3,3-dimethyl-1-(methylamino)-1-oxobutan-2-yl]-4-(2,2,2-trifluoroethoxy)pyridine-2-carboxamide], the EC50 was 0.0573 µM on human CB2 receptors and more than 10 µM on human CB1 receptors (Human CB1 EC50 (uM)).
With `CNC(=O)C(NC(=O)c1cc(OCC(F)(F)F)c(C2CC2)cn1)C(C)(C)C` (single isomer, unassigned) [Example 225, 5-cyclopropyl-N-[3,3-dimethyl-1-(methylamino)-1-oxobutan-2-yl]-4-(2,2,2-trifluoroethoxy)pyridine-2-carboxamide], the EC50 at human CB2 receptors was 0.0004 µM; on human CB1 receptors (read-out: Human CB1 EC50), more than 10 µM.
Regarding `CC(C)(C)C(NC(=O)c1cc(OCC(F)(F)F)c(C2CC2)cn1)c1noc(N)n1` (single isomer, unassigned) [Example 226, N-[1-(5-amino-1,2,4-oxadiazol-3-yl)-2,2-dimethylpropyl]-5-cyclopropyl-4-(2,2,2-trifluoroethoxy)pyridine-2-carboxamide], the concentration giving a half-maximal response (EC50) at human CB2 receptors was 0.0065 µM; on human CB1 receptors (Human CB1 EC50 (uM)), more than 10 µM.
For `CC(C)(C)C(NC(=O)c1cc(OCC(F)(F)F)c(C2CC2)cn1)c1noc(N)n1` (single isomer, unassigned) [Example 227, N-[1-(5-amino-1,2,4-oxadiazol-3-yl)-2,2-dimethylpropyl]-5-cyclopropyl-4-(2,2,2-trifluoroethoxy)pyridine-2-carboxamide], the EC50 at human CB2 receptors is 0.015 µM; at human CB1 receptors (read-out: Human CB1 EC50), more than 10 µM.
As for `Cn1nnnc1C(C)(CC1CC1)NC(=O)c1cc(OCC(F)(F)F)c(C2CC2)cn1` (single isomer, unassigned) [Example 228, 5-cyclopropyl-N-[1-cyclopropyl-2-(1-methyltetrazol-5-yl)propan-2-yl]-4-(2,2,2-trifluoroethoxy)pyridine-2-carboxamide], the concentration giving a half-maximal response (EC50) at human CB2 receptors was 0.0346 µM; at human CB1 receptors (Human CB1 EC50 (uM)), more than 10 µM.
The matching figures for `CNC(=O)CC(C)(NC(=O)c1cc(OCC(F)(F)F)c(C2CC2)cn1)C1CC1` (single isomer, unassigned) [Example 241, 5-cyclopropyl-N-[2-cyclopropyl-4-(methylamino)-4-oxobutan-2-yl]-4-(2,2,2-trifluoroethoxy)pyridine-2-carboxamide]: 0.0119 µM and more than 10 µM.
For `CNC(=O)CC(C)(NC(=O)c1cc(OCC(F)(F)F)c(C2CC2)cn1)C1CC1` (single isomer, unassigned) [Example 242, 5-cyclopropyl-N-[2-cyclopropyl-4-(methylamino)-4-oxobutan-2-yl]-4-(2,2,2-trifluoroethoxy)pyridine-2-carboxamide], the EC50 on human CB2 receptors was 0.237 µM; on human CB1 receptors (read-out: Human CB1 EC50) it was more than 10 µM.
In the case of `CC(CC(N)=O)(NC(=O)c1cc(OCC(F)(F)F)c(C2CC2)cn1)C1CC1` (single isomer, unassigned) [Example 243, N-[4-amino-2-cyclopropyl-4-oxobutan-2-yl]-5-cyclopropyl-4-(2,2,2-trifluoroethoxy)pyridine-2-carboxamide], the EC50 on human CB2 receptors was 0.0005 µM; on human CB1 receptors (Human CB1 EC50 (uM)) it was more than 10 µM.
Take `CC(CC(N)=O)(NC(=O)c1cc(OCC(F)(F)F)c(C2CC2)cn1)C1CC1` (single isomer, unassigned) [Example 244, N-[4-amino-2-cyclopropyl-4-oxobutan-2-yl]-5-cyclopropyl-4-(2,2,2-trifluoroethoxy)pyridine-2-carboxamide]: the EC50 on human CB2 receptors is 0.0284 µM; at human CB1 receptors (read-out: Human CB1 EC50), more than 10 µM.
With `CC(C)(C)C(NC(=O)c1cc(OCC2CC2)c(N2CC(F)(F)C2)cn1)C(N)=O` (single isomer, unassigned) [Example 260, N-[1-amino-3,3-dimethyl-1-oxobutan-2-yl]-4-(cyclopropylmethoxy)-5-(3,3-difluoroazetidin-1-yl)pyridine-2-carboxamide], the EC50 on human CB2 receptors is 0.0209 µM; at human CB1 receptors (Human CB1 EC50 (uM)), more than 10 µM.
Take `CC(C)(C)C(NC(=O)c1cc(OCC2CC2)c(N2CC(F)(F)C2)cn1)C(N)=O` (single isomer, unassigned) [Example 261, N-[1-amino-3,3-dimethyl-1-oxobutan-2-yl]-4-(cyclopropylmethoxy)-5-(3,3-difluoroazetidin-1-yl)pyridine-2-carboxamide]: the figures for the EC50 at human CB2 receptors and on human CB1 receptors (read-out: Human CB1 EC50) were 0.0211 µM and more than 10 µM, respectively.
Turning to `CC(C)(C)C(NC(=O)c1cc(OCC(F)(F)F)c(N2CC(F)(F)C2)cn1)C(N)=O` (single isomer, unassigned) [Example 262, N-[1-amino-3,3-dimethyl-1-oxobutan-2-yl]-5-(3,3-difluoroazetidin-1-yl)-4-(2,2,2-trifluoroethoxy)pyridine-2-carboxamide], the EC50 was 0.261 µM on human CB2 receptors and more than 10 µM at human CB1 receptors (Human CB1 EC50 (uM)).
For the molecule `CC(C)(C)C(NC(=O)c1cc(OCC(F)(F)F)c(N2CC(F)(F)C2)cn1)C(N)=O` (single isomer, unassigned) [Example 263, N-[1-amino-3,3-dimethyl-1-oxobutan-2-yl]-5-(3,3-difluoroazetidin-1-yl)-4-(2,2,2-trifluoroethoxy)pyridine-2-carboxamide], the EC50 on human CB2 receptors was 0.0338 µM; at human CB1 receptors (read-out: Human CB1 EC50), more than 10 µM.
Turning to `CC1(C(NC(=O)c2cc(OCC(F)(F)F)c(C3CC3)cn2)C(N)=O)COC1` (single isomer, unassigned) [Example 268, N-[2-amino-1-(3-methyloxetan-3-yl)-2-oxoethyl]-5-cyclopropyl-4-(2,2,2-trifluoroethoxy)pyridine-2-carboxamide], the 50% effective concentration (EC50) was 0.225 µM at human CB2 receptors and more than 10 µM on human CB1 receptors (Human CB1 EC50 (uM)).
In the case of `CC1(C(NC(=O)c2cc(OCC(F)(F)F)c(C3CC3)cn2)C(N)=O)COC1` (single isomer, unassigned) [Example 269, N-[2-amino-1-(3-methyloxetan-3-yl)-2-oxoethyl]-5-cyclopropyl-4-(2,2,2-trifluoroethoxy)pyridine-2-carboxamide], the half-maximal effective concentration (EC50) is 0.771 µM at human CB2 receptors and more than 10 µM on human CB1 receptors (read-out: Human CB1 EC50).
Take `CC(CC(N)=O)(NC(=O)c1cc(OCCF)c(C2CC2)cn1)C1CC1` (single isomer, unassigned) [Example 270, N-[4-amino-2-cyclopropyl-4-oxobutan-2-yl]-5-cyclopropyl-4-(2-fluoroethoxy)pyridine-2-carboxamide]: the EC50 is 0.0689 µM on human CB2 receptors and more than 10 µM at human CB1 receptors (Human CB1 EC50 (uM)).
On to `CC(CC(N)=O)(NC(=O)c1cc(OCCF)c(C2CC2)cn1)C1CC1` (single isomer, unassigned) [Example 271, N-[4-amino-2-cyclopropyl-4-oxobutan-2-yl]-5-cyclopropyl-4-(2-fluoroethoxy)pyridine-2-carboxamide], for which the EC50 on human CB2 receptors is 0.0015 µM; at human CB1 receptors (read-out: Human CB1 EC50), more than 10 µM.
